Experiments:
[1] = target: T1, human CB2 (Homo sapiens, UniProt P34972); experiment: Cannabinoid Receptor 2 (CB2) activity, calcium FLIPR assay in CHO-K1 cells co-expressing human CB2 and G15; conditions: FIG. 1 and FIG. 2
[2] = test system: transient receptor potential (TRP) channels; conditions: cited from earlier work
[3] = target: T1, human CB2; set-up: expressed in transfected cells; conditions: cited from earlier work

T1 sequence (P34972 whole entry): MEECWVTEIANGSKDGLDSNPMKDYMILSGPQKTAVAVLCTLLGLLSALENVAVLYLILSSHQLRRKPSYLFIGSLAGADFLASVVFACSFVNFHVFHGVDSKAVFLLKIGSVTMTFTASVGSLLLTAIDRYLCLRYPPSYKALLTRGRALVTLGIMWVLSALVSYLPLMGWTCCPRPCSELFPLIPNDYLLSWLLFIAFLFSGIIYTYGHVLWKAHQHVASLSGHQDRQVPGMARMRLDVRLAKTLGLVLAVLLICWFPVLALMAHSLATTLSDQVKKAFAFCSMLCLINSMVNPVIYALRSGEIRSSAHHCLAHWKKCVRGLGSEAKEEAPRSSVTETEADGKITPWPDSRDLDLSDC

CCCCCc1cc(O)c2c(c1)OC(C)(CCC=C(C)C)C=C2 (stereo not shown) [CBC, cannabichromene]
agonist potency at the human CB2 receptor compared with other phytocannabinoid agonists (CBD, CBCV) [1]: more potent agonist | potency at human CB2 receptor relative to CBD ([1]; two independent experiments): at least 4 fold | agonism at several TRP channels [2]: known agonist at several transient receptor potential (TRP) channels, albeit somewhat weakly

C=C(C)[C@@H]1CCC(C)=C[C@H]1c1c(O)cc(CCCCC)cc1O [CBD, cannabidiol]
agonism at the CB2 receptor (known) [3]: known agonist

— patent publication US20200000766A1, “COMPOSITIONS AND METHODS FOR AGONIZING THE CB2 RECEPTOR” (priority 2018, published 2020)
